pIC50: −log10 of the molar value. Bounds are passed on as bounds.

This assay deals with human, KCNT1 (Homo sapiens (Human), UniProt Q5JUK3). The experiment in a line: FLIPR Tl/K Flux Assay. It is filed as cell-based. Particulars: HEK293 cells stably expressing human KCNT1; Tl+ flux stimulated with EC80 of agonist Loxapine. In short, it runs like this: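 HEK293 cells stably expressing human KCNT1 were loaded with FLIPR potassium dye in HEPES/HBSS pH 7.4 with 5 mM probenecid, 1 h at 25 °C, then given test compound for 30 min at 25 °C. Tl+ flux was triggered with chloride-free buffer containing Tl+ and EC80 loxapine and read 160 s. IC50 came from Hill fits of % inhibition.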
Chain of human, KCNT1 (Q5JUK3 whole entry): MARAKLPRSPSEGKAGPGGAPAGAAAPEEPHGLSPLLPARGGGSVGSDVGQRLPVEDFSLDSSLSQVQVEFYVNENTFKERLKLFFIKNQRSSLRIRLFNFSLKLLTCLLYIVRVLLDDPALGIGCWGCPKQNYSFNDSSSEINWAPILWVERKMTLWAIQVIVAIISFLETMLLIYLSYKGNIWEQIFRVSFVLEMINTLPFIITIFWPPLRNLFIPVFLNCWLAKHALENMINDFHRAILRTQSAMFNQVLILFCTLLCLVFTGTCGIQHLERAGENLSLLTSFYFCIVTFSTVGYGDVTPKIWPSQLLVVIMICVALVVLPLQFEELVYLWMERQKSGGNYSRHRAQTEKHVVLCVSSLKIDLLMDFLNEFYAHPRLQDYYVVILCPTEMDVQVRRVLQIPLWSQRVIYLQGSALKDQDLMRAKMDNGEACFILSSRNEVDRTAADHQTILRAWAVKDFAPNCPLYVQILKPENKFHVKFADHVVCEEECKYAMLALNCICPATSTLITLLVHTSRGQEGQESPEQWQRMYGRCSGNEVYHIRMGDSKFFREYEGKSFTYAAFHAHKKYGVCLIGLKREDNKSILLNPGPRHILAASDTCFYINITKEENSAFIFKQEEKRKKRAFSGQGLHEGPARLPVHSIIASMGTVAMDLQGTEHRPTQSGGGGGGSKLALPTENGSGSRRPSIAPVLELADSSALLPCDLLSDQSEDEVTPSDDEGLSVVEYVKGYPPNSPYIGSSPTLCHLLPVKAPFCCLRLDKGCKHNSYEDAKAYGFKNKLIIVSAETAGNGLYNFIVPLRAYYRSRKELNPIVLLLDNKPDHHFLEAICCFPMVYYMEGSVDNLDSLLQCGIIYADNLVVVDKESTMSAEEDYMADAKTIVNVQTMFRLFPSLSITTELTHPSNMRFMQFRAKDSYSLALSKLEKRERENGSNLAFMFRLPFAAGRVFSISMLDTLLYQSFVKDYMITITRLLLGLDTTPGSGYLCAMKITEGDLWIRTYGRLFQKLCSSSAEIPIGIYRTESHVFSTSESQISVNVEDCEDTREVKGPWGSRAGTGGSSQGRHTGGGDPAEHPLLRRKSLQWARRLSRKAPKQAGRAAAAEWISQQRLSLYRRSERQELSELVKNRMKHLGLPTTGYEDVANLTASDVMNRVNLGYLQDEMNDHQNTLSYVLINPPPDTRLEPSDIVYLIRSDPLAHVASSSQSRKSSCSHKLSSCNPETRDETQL
As a reminder, the pIC50 is the negative decadic logarithm of the IC50, by convention in mol/L. A low value points to a high IC50. The compound `CC1(C)C[C@H](NC(=O)c2cccc(C#N)c2)c2cc(-c3ccnc(C(F)(F)F)c3)nn2C1` [Compound I-220a, (S)-3-Cyano-N-(6,6-dimethyl-2-(2-(trifluoromethyl)pyridin-4-yl)-4,5,6,7-tetrahydropyrazolo[1,5-a]pyridin-4-yl)benzamide] showed a pIC50 of 6.30 to 6.60.

Consider `Cc1nc(C(=O)N[C@H]2CCn3nc(-c4ccnc(C(F)(F)F)c4)cc32)n(C)n1` [Compound I-221a, (S)-1,3-Dimethyl-N-(2-(2-(trifluoromethyl)pyridin-4-yl)-5,6-dihydro-4H-pyrrolo[1,2-b]pyrazol-4-yl)-1H-1,2,4-triazole-5-carboxamide], for which the pIC50 is above 6.60. As for `COc1cc(-c2cc3n(n2)CCC[C@@H]3NC(=O)c2cccc(C#N)c2)c(C)cn1` [Compound I-222a, (S)-3-Cyano-N-(2-(2-methoxy-5-methylpyridin-4-yl)-4,5,6,7-tetrahydropyrazolo[1,5-a]pyridin-4-yl)benzamide], the negative-log IC50 (pIC50) is above 6.60.

Compound `Cn1nc(C2CC2)nc1C(=O)N[C@H]1CCCc2oc(-c3ccnc(C4CC4)c3)nc21` [Compound I-223a, (S)-3-Cyclopropyl-N-(2-(2-cyclopropylpyridin-4-yl)-4,5,6,7-tetrahydrobenzo[d]oxazol-4-yl)-1-methyl-1H-1,2,4-triazole-5-carboxamide] gave a pIC50 above 6.60. Turning to `Cn1nc(C2CC2)nc1C(=O)N[C@H]1CCn2nc(-c3ccnc(C(F)(F)F)c3)cc21` [Compound I-224a, (S)-3-Cyclopropyl-1-methyl-N-(2-(2-(trifluoromethyl)pyridin-4-yl)-5,6-dihydro-4H-pyrrolo[1,2-b]pyrazol-4-yl)-1H-1,2,4-triazole-5-carboxamide], the pIC50 is above 6.60. As for `Cn1ncnc1C(=O)N[C@H]1CCn2nc(-c3ccnc(C(F)(F)F)c3)cc21` [Compound I-225a], the figure is below 6.00; as for `O=C(N[C@H]1CCn2nc(-c3ccnc(C(F)(F)F)c3)cc21)c1ccnc(OC(F)F)c1` [Compound I-226a, (S)-2-(Difluoromethoxy)-N-(2-(2-(trifluoromethyl)pyridin-4-yl)-5,6-dihydro-4H-pyrrolo[1,2-b]pyrazol-4-yl)isonicotinamide], above 6.60. `Cc1nc(C(=O)N[C@H]2CCCc3oc(-c4ccnc(C5CC5)c4)nc32)n(C)n1` [Compound I-227a, (S)-N-(2-(2-Cyclopropylpyridin-4-yl)-4,5,6,7-tetrahydrobenzo[d]oxazol-4-yl)-1,3-dimethyl-1H-1,2,4-triazole-5-carboxamide]: the pIC50 is below 6.00. As for `Cn1ncnc1C(=O)N[C@H]1CCCc2oc(-c3ccnc(C4CC4)c3)nc21` [Compound I-228a, (S)-N-(2-(2-Cyclopropylpyridin-4-yl)-4,5,6,7-tetrahydrobenzo[d]oxazol-4-yl)-1-methyl-1H-1,2,4-triazole-5-carboxamide], the figure is below 6.00; as for `Cn1nc(C(F)(F)F)nc1C(=O)N[C@H]1CCCc2oc(-c3ccnc(C4CC4)c3)nc21` [Compound I-229a, (S)-N-(2-(2-Cyclopropylpyridin-4-yl)-4,5,6,7-tetrahydrobenzo[d]oxazol-4-yl)-1-methyl-3-(trifluoromethyl)-1H-1,2,4-triazole-5-carboxamide], above 6.60.

In turn, `COc1cc(-c2cc3n(n2)CC[C@@H]3NC(=O)c2nc(C)nn2C)ccn1` [Compound I-230a, (S)-N-(2-(2-Methoxypyridin-4-yl)-5,6-dihydro-4H-pyrrolo[1,2-b]pyrazol-4-yl)-1,3-dimethyl-1H-1,2,4-triazole-5-carboxamide] gave a pIC50 below 6.00.

The compound `O=C(N[C@H]1CCCc2oc(-c3ccnc(C4CC4)c3)nc21)c1cncc(C(F)(F)F)n1` [Compound I-231a] gave a pIC50 above 6.60. To `N#Cc1cccc(C(=O)N[C@H]2CCCc3oc(-c4ccnc(C5CC5)c4)nc32)c1` [Compound I-232a, (S)-3-Cyano-N-(2-(2-cyclopropylpyridin-4-yl)-4,5,6,7-tetrahydrobenzo[d]oxazol-4-yl)benzamide] belongs above 6.60.

For the compound `Cn1nc(C(F)(F)F)cc1C(=O)N[C@H]1CCn2nc(-c3ccnc(OC(F)F)c3)cc21` [Compound I-233a, (S)-N-(2-(2-(Difluoromethoxy)pyridin-4-yl)-5,6-dihydro-4H-pyrrolo[1,2-b]pyrazol-4-yl)-1-methyl-3-(trifluoromethyl)-1H-pyrazole-5-carboxamide], the pIC50 is above 6.60. For the compound `O=C(N[C@H]1CCCn2nc(-c3ccnc(C(F)(F)F)c3)nc21)c1cc(F)cc(F)c1` [Compound I-234a, (S)-3,5-Difluoro-N-(2-(2-(trifluoromethyl)pyridin-4-yl)-5,6,7,8-tetrahydro-[1,2,4]triazolo[1,5-a]pyridin-8-yl)benzamide], the pIC50 was above 6.60.

`Cc1cnc(C(F)(F)F)cc1-n1cc2c(n1)CC[C@@H]2NC(=O)c1cccc(C#N)c1` [Compound I-235a, (S)-3-Cyano-N-(2-(5-methyl-2-(trifluoromethyl)pyridin-4-yl)-2,4,5,6-tetrahydrocyclopenta[c]pyrazol-4-yl)benzamide] had a negative-log IC50 (pIC50) above 6.60. `Cc1cnc(C(F)(F)F)cc1-c1cc2n(n1)CC[C@@H]2NC(=O)c1cc(C(F)(F)F)nn1C` [Compound I-236a, (S)-1-Methyl-N-(2-(5-methyl-2-(trifluoromethyl)pyridin-4-yl)-5,6-dihydro-4H-pyrrolo[1,2-b]pyrazol-4-yl)-3-(trifluoromethyl)-1H-pyrazole-5-carboxamide] gave a negative-log IC50 (pIC50) above 6.60. As for `COc1cc(-c2cc3n(n2)CC[C@@H]3NC(=O)c2nc(C(F)(F)F)nn2C)ccn1` [Compound I-237a, (S)-N-(2-(2-Methoxypyridin-4-yl)-5,6-dihydro-4H-pyrrolo[1,2-b]pyrazol-4-yl)-1-methyl-3-(trifluoromethyl)-1H-1,2,4-triazole-5-carboxamide], the negative-log IC50 (pIC50) was above 6.60. As for `O=C(N[C@H]1CCCc2oc(-c3ccnc(C4CC4)c3)nc21)c1cccc(C(F)(F)F)c1` [Compound I-238a, (S)-N-(2-(2-Cyclopropylpyridin-4-yl)-4,5,6,7-tetrahydrobenzo[d]oxazol-4-yl)-3-(trifluoromethyl)benzamide], the figure is above 6.60.

Compound `COc1cc(-c2cc3n(n2)CCC[C@@H]3NC(=O)c2cccc(C#N)c2)c(Cl)cn1` [Compound I-239a, (S)-N-(2-(5-Chloro-2-methoxypyridin-4-yl)-4,5,6,7-tetrahydropyrazolo[1,5-a]pyridin-4-yl)-3-cyanobenzamide] had a pIC50 above 6.60. Take `COc1cc(-c2cc3n(n2)CC[C@@H]3NC(=O)c2cn(C(F)(F)F)nc2C)ccn1` [Compound I-240a, (S)-N-(2-(2-Methoxypyridin-4-yl)-5,6-dihydro-4H-pyrrolo[1,2-b]pyrazol-4-yl)-3-methyl-1-(trifluoromethyl)-1H-pyrazole-4-carboxamide]: the pIC50 was above 6.60. `Cn1nc(C(F)(F)F)nc1C(=O)N[C@H]1CCCc2oc(-c3ccnc(C(F)(F)F)c3)nc21` [Compound I-241a, (S)-1-Methyl-3-(trifluoromethyl)-N-(2-(2-(trifluoromethyl)pyridin-4-yl)-4,5,6,7-tetrahydrobenzo[d]oxazol-4-yl)-1H-1,2,4-triazole-5-carboxamide]: the negative logarithm of the IC50 (pIC50) was above 6.60. As for `Cc1cc(C(=O)N[C@H]2CCCc3oc(-c4ccnc(C5CC5)c4)nc32)cc(C(F)(F)F)c1` [Compound I-242a, (S)-N-(2-(2-Cyclopropylpyridin-4-yl)-4,5,6,7-tetrahydrobenzo[d]oxazol-4-yl)-3-methyl-5-(trifluoromethyl)benzamide], the figure is above 6.60; as for `COc1cc(-c2cc3n(n2)CC[C@@H]3NC(=O)c2cc(C(F)(F)F)nn2C)c(F)cn1` [Compound I-243a, (S)-N-(2-(5-Fluoro-2-methoxypyridin-4-yl)-5,6-dihydro-4H-pyrrolo[1,2-b]pyrazol-4-yl)-1-methyl-3-(trifluoromethyl)-1H-pyrazole-5-carboxamide], above 6.60; as for `CCc1cc(C#N)cc(C(=O)N[C@H]2CCCCn3nc(-c4ccnc(C(F)(F)F)c4)cc32)c1` [Compound I-244a, (S)-3-Cyano-5-ethyl-N-(2-(2-(trifluoromethyl)pyridin-4-yl)-5,6,7,8-tetrahydro-4H-pyrazolo[1,5-a]azepin-4-yl)benzamide], above 6.60.

The compound `CCc1cc(C#N)cc(C(=O)N[C@H]2CCCn3nc(-c4ccnc(C(F)(F)F)c4)cc32)c1` [Compound I-245a, (S)-3-Cyano-5-ethyl-N-(2-(2-(trifluoromethyl)pyridin-4-yl)-4,5,6,7-tetrahydropyrazolo[1,5-a]pyridin-4-yl)benzamide] had a pIC50 above 6.60.

Turning to `CCc1cc(C#N)cc(C(=O)N[C@H]2CCc3nn(-c4ccnc(C(F)(F)F)c4)cc32)c1` [Compound I-246a, (S)-3-Cyano-5-ethyl-N-(2-(2-(trifluoromethyl)pyridin-4-yl)-2,4,5,6-tetrahydrocyclopenta[c]pyrazol-4-yl)benzamide], the negative logarithm of the IC50 (pIC50) is above 6.60. To `Cn1nc(C(F)(F)F)cc1C(=O)N[C@H]1CCCc2c1nc(-c1ccnc(C(F)(F)F)c1)n2C` [Compound I-247a, (S)-1-Methyl-N-(1-methyl-2-(2-(trifluoromethyl)pyridin-4-yl)-4,5,6,7-tetrahydro-1H-benzo[d]imidazol-4-yl)-3-(trifluoromethyl)-1H-pyrazole-5-carboxamide] belongs below 6.00; to `COc1cc(-c2nc3c(o2)CCC[C@@H]3NC(=O)c2cc(C)cc(C(F)(F)F)c2)ccn1` [Compound I-248a], above 6.60; to `COc1cc(-c2nc3c(o2)CCC[C@@H]3NC(=O)c2cccc(C(F)(F)F)c2)ccn1` [Compound I-249a, (S)-N-(2-(2-Methoxypyridin-4-yl)-4,5,6,7-tetrahydrobenzo[d]oxazol-4-yl)-3-(trifluoromethyl)benzamide], above 6.60. As for `Cc1cc(C(=O)N[C@H]2CCCc3oc(-c4ccnc(C(F)(F)F)c4)nc32)cc(C(F)(F)F)c1` [Compound I-250a, (S)-3-Methyl-5-(trifluoromethyl)-N-(2-(2-(trifluoromethyl)pyridin-4-yl)-4,5,6,7-tetrahydrobenzo[d]oxazol-4-yl)benzamide], the figure is above 6.60.

(Values after patent publication US20250313548A1 (Actio Biosciences, Inc., priority 2023, published 2025).)
